This note sets out measurements from paper PMC12280919, “Arylsulfamates inhibit colonic Bacteroidota growth through a sulfatase-independent mechanism” (Proceedings of the National Academy of Sciences of the …, 2025).

Assay [1] has as its target T1, PaAstA (Pseudomonas aeruginosa, UniProt P51691).
T1 construct: gene atsA; S1_4 sulfatase
The experiment in a line: 4-nitrophenyl sulfate hydrolysis, A400; also preincubation and jump dilution. The format is biochemical. The settings on record: 1 mM compound, 1 mM 4-nitrophenyl sulfate, pH 7.0, 5 mM CaCl2, 20-25 °C; irreversible, covalent.

Another assay concerns the target T2, BT4322 (Bacteroides thetaiotaomicron, UniProt Q89ZQ4).
T2 construct: gene BT_4322; recombinant in E. coli
T2 sequence (Q89ZQ4 1-308): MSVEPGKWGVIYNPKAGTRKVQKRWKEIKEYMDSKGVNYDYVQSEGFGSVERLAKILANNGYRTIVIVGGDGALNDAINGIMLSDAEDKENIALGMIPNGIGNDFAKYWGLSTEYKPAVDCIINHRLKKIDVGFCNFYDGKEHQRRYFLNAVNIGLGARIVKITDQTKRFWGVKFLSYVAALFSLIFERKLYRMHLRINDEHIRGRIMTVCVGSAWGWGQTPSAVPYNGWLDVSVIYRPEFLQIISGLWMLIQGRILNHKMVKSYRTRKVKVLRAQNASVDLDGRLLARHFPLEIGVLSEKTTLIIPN
The experiment in a line: thermal shift assay (SYPRO Orange DSF). Format: binding. Particulars: pH 7.0, 100 mM BTP, 150 mM NaCl, 5% DMSO.

In another assay the target is T3, BT1636^3S-Gal (Bacteroides thetaiotaomicron, UniProt Q8A789, S77C).
T3 construct: gene BT_1636; recombinant in E. coli TUNER, cobalt IMAC
T3 sequence (Q8A789 23-509 S77C): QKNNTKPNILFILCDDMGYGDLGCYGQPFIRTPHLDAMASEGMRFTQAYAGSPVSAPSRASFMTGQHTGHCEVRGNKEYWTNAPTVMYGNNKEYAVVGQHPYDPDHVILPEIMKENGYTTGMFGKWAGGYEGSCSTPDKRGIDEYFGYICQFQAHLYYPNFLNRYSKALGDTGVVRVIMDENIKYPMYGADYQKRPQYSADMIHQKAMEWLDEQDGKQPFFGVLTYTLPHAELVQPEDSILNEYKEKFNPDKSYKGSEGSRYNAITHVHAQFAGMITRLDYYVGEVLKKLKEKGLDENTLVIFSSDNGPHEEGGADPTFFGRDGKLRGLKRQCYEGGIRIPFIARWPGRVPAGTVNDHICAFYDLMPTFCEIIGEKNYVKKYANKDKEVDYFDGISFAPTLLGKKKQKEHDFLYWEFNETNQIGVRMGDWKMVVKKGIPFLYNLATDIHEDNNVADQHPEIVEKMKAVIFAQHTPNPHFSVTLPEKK
The experiment in a line: microfluidic mobility shift desulfation assay after overnight preincubation and dilution. The format is biochemical. Particulars: 1 mM compound, only after preincubation; BODIPY-labelled sulfated substrate, 5 mM CaCl2, 28 °C; formylglycine form.

The target in assay [2] is T1, PaAstA. The assay is described as follows: 4-nitrophenolate release, A400. The format is biochemical. The settings on record: 1 mM substrate, pH 7.0, 5 mM CaCl2, 20-25 °C.

Where a name gives a salt, the structure may show the parent alone.

T1 sequence (P51691 2-536): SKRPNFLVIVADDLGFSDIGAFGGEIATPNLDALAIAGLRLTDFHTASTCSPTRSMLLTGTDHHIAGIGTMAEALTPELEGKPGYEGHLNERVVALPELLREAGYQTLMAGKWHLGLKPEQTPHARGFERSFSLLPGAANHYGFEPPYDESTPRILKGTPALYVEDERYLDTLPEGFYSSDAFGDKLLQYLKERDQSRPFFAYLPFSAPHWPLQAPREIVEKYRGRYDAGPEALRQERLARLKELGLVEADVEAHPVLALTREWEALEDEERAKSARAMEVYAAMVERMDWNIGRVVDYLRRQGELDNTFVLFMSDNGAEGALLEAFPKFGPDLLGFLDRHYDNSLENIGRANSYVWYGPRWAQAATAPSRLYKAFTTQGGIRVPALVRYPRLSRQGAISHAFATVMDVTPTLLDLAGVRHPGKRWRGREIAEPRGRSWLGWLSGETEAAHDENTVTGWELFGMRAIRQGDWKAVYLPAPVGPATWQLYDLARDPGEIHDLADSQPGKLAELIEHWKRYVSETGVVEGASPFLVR

For the compound `COc1cc2ccccc2cc1OS(N)(=O)=O` [compound 17, arylsulfamate 17], the “% inhibition at 1 mM” value at PaAstA [1] is given as “all arylsulfamates were broadly equivalent in their ability to completely inhibit both enzymes”.

Take `Nc1ncnc2c1ncn2[C@@H]1O[C@H](COP(=O)(O)OP(=O)(O)OP(=O)(O)O)[C@@H](O)[C@H]1O` [ATP]: the dTm result at BT4322 (stabilizing) was “The substrate ATP also stabilized BT4322”.

Turning to `Cc1nc2sccn2c(=O)c1CCN1CCC(=C(c2ccccc2)c2ccc(F)cc2)CC1` [diacylglycerol kinase inhibitor I], the dTm entry on BT4322 (destabilizing) was “The DAGK-I inhibitor also caused concentration-dependent destabilization”.

For `O=c1c2ccccc2[nH]c(=S)n1CCN1CCC(=C(c2ccc(F)cc2)c2ccc(F)cc2)CC1` [diacylglycerol kinase inhibitor II], the dTm result at BT4322 (stabilizing) is on record as “DAGK-II caused a concentration-dependent stabilization”.

Regarding `O=S(=O)(F)c1ccccc1` [compound 23, aryl sulfonylfluoride 23], on BT1636^3S-Gal, the “% inhibition at 1 mM” value is given as > 50%.

`O=[N+]([O-])c1ccc(OS(=O)(=O)O)cc1` [4-nitrophenyl sulfate]: on PaAstA [2], the “4-nitrophenolate release, A400” value is on record as “rapidly hydrolyzed by the family S1 steroid sulfatase PaAsta”.

With `NS(=O)(=O)Oc1ccc(-c2ccccc2)cc1` [compound 2, 4-phenylphenyl sulfamate], the “% inhibition at 1 mM” value at PaAstA [1] is listed as “all arylsulfamates were broadly equivalent in their ability to completely inhibit both enzymes”.
